pIC50: −log10 of the molar value.
What was measured:
[1] = Metabolic stability test in liver microsome (rat); type: in vitro ADME
[2] = target: T1, hERG current (hERG-transfected HEK293 cells) (Homo sapiens, UniProt Q12809); test: hERG whole cell patch clamp test; type: cell-based; conditions: for pIC50: whole cell patch clamp, hERG-transfected HEK293 cells
T1 construct: host or cells: HEK293
Protocol: Using human ether-a-go-go related gene (hERG)-transfected HEK293 cells (Cytomyx Limited), an influence on hERG current was examined according to the whole cell patch clamp technique. The hERG-transfected HEK293 cells were passaged using a CO2 incubator (BNA-111, TABAI ESPEC CORP.) under the set conditions of 37° C., 5% CO2, saturated humidity. Culture containers used were Collagen Type I Coated 75 cm^2 flask (4123-010, AGC TECHNO GLASS CO., Ltd.) and Collagen Type I Coated 35 mm culture dish (4000-010, AGC TECHNO GLASS CO., Ltd.). The culture medium used was E-MEM (Eagle Minimum Essential Medium (Earle's Salts, Nikken biomedical laboratory) added with 10% FCS (Fetal calf serum, BioWest, L.L.C.) and 1% MEM Non-Essential Amino Acids Solution (NEAA, Invitrogen Corporation). Geneticin for the selection of hERG gene expressing cells was added thereto to a concentration of 400 μg/mL. As the cells for the measurement, 3×10^4 hERG-transfected HEK293 cells were plated on a 35 mm culture dish 4 to 7 days before measurement of the hERG current. The culture dish produced for the measurement contained the above-mentioned culture medium without geneticin (Invitrogen Corporation).
The highest evaluation concentration of each compound was determined from the highest concentration at which precipitation was not found in the standard extracellular fluid (NaCl: 140 mmol/L, KCl: 2.5 mmol/L, MgCl2: 2 mmol/L, CaCl2: 2 mmol/L, HEPES: 10 mmol/L, glucose: 10 mmol/L (adjusted to pH 7.4 with Tris-base)). As the application method, each solution to be applied was ejected from a Y-tube having a tip diameter of about 0.25 mm, which was adjacent (about 2 mm) to the cells, and applied to the cells. The ejection rate was about 0.4 mL/min.
The experiment was performed at room temperature under a phase contrast microscope. The 35 mm culture dish plated with the cells was set on a measurement apparatus, and the standard extracellular fluid was continuously applied to the cells from the Y-tube. A glass electrode for the measurement was filled with an intracellular fluid (Potassium Gluconate: 130 mmol/L, KCl: 20 mmol/L, MgCl2: 1 mmol/L, ATP-Mg: 5 mmol/L, EGTA: 3.5 mmol/L, HEPES: 10 mmol/L (adjusted to pH 7.2 with Tris-base)). A conventional whole cell patch clamp method was applied to the cells, and the maintenance electric potential was set to −80 mV. Under a fixed electric potential, the whole cell current was amplified by an amplifier for patch clamp (AXOPATCH-200B, Axon Instruments, Inc.), and the data was loaded into a computer (IMC-P642400, Intermedical Co., Ltd.) using a data acquisition analysis software (pCLAMP 9.2, Axon Instruments, Inc.).
The measurement of the hERG current was performed in the following two steps. In both cases, the hERG current was initiated by giving a command potential (maintenance electric potential −80 mV, prepulse+20 mV, 1.5 sec, test-pulse −50 mV, 1.5 sec).
Step (1): The above-mentioned command potential was given at 0.1 Hz for 2 min.
Step (2): The above-mentioned command potential was subjected to P/3 subtraction of pCLAMP 9.2 to remove leak current. This was repeated three times and an average thereof was taken as hERG current.
Subsequent to step (1), Step (2) was performed (about 3 min), and the maximum tail current obtained by applying a test-pulse to the hERG current obtained by the method of step (2) was taken as hERG current value. Hereafter, the operations of (1) and (2) were alternately repeated until completion of the experiment and the hERG current value was measured.
Stable hERG current value was recorded three times (about 10 min), and the standard extracellular fluid was instantaneously exchanged with each application fluid. The hERG current value was measured three times (about 10 min) in the same manner during perfusion of the application fluid, and the current value obtained by the 3rd measurement was taken as hERG current value after perfusion of the application fluid. […]

T1 sequence (Q12809 whole entry): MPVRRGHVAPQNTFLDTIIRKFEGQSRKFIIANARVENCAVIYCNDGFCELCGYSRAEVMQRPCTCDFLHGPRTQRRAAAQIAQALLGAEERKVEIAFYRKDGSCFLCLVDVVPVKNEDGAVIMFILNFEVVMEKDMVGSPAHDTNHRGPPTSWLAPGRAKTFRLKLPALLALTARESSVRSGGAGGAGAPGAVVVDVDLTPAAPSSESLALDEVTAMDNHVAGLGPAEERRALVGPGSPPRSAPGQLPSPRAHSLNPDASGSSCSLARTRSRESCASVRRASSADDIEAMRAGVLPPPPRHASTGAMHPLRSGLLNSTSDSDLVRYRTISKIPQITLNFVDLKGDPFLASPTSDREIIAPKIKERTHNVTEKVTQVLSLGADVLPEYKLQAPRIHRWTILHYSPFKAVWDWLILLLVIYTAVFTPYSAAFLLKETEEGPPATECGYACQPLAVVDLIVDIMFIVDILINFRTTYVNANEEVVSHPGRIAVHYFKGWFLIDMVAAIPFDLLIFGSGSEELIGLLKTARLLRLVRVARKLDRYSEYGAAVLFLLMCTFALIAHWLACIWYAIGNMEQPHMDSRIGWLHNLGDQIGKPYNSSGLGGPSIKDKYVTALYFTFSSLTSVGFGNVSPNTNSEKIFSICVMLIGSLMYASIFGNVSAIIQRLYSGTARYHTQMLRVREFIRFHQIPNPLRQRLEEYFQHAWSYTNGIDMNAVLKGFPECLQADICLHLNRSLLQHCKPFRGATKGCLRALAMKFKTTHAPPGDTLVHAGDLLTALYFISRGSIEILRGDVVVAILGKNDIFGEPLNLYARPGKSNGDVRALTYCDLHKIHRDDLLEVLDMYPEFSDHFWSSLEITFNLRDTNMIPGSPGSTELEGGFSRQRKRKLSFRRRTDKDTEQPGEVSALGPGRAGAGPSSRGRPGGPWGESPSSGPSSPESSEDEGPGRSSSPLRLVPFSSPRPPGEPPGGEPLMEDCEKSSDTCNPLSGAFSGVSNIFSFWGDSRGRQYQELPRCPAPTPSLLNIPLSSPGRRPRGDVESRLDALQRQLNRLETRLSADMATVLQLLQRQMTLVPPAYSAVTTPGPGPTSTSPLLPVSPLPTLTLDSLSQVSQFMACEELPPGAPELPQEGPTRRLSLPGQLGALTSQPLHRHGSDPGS

Row | stability in liver microsome (residual ratio %) ([1]; 10 min) | stability in liver microsome (residual ratio %) ([1]; 60 min) | SMILES | hERG inhibition rate (%) ([2]; concentration 10 μmol/L) | hERG inhibition rate (%) ([2]; concentration 100 μmol/L) | pIC50 [2] | hERG inhibition rate (%) ([2]; concentration 30 μmol/L) | hERG inhibition rate (%) ([2]; concentration 1 μmol/L)
1 | 102.0% | 95.4% | C[C@H](O)COc1cc(-c2cnn(CC(C)(C)O)c2)c2c(c1)[C@@](O)(C(F)(F)F)c1ccccc1-2 [compound (1), (9R)-4-[1-(2-hydroxy-2-methylpropyl)-1H-pyrazol-4-yl]-2-((2S)-2-hydroxypropoxy)-9-(trifluoromethyl)-9H-fluoren-9-ol] | 16.2% | 62.3% | 4.26 |  | 
2 | 95.1% | 93.6% | CC(C)(O)COc1cc(-c2cnn(CC(C)(C)O)c2)c2c(c1)[C@@](O)(C(F)(F)F)c1ccccc1-2 [compound (2), (9R)-2-(2-hydroxy-2-methylpropoxy)-4-[1-(2-hydroxy-2-methylpropyl)-1H-pyrazol-4-yl]-9-(trifluoromethyl)-9H-fluoren-9-ol] | 13.2% | 67.6% | 4.32 |  | 
3 | 98.9% | 93.5% | CC(C)(O)CCCOc1cc(-c2cnn(CC(C)(C)O)c2)c2c(c1)[C@@](O)(C(F)(F)F)c1ccccc1-2 [compound (4), (9R)-2-(4-hydroxy-4-methylpentyloxy)-4-[1-(2-hydroxy-2-methylpropyl)-1H-pyrazol-4-yl]-9-(trifluoromethyl)-9H-fluoren-9-ol] | 18.6% |  | < 4.52 | 44.0% | 
4 | 24.8% | 0.0% | NC(=O)Cn1cc(-c2cc(OCCC34CC5CC(CC(O)(C5)C3)C4)cc3c2-c2ccccc2[C@]3(O)C(F)(F)F)cn1 [compound (A), 2-(4-{(9R)-9-Hydroxy-2-[2-(3-hydroxyadamantan-1-yl)ethoxy]-9-(trifluoromethyl)-9H-fluoren-4-yl}-1H-pyrazol-1-yl)acetamide, reference compound] | 11.8% |  |  |  | 
5 | 101.1% | 92.1% | Cn1cc(-c2cc(OCC(C)(C)O)cc3c2-c2ccccc2[C@]3(O)C(F)(F)F)cn1 [compound (B), (9R)-2-(2-Hydroxy-2-methylpropoxy)-4-(1-methyl-1H-pyrazol-4-yl)-9-(trifluoromethyl)-9H-fluoren-9-ol, reference compound] | 72.9% |  |  |  | 17.4%
